US20250051333A1, “POLYMORPH OF KRAS INHIBITOR, PREPARATION METHOD THEREFOR, AND USE THEREOF” (GENFLEET THERAPEUTICS (SHANGHAI) INC., priority 2021, published 2025)

What was measured:
Type in all cases: physicochemical
[1] = Solid stability, 60° C./75% RH open, physical stability by XRPD; settings: for Crystalline form: XRPD; for Polymorphic transition: 60° C./75% RH open, up to 1 month
Protocol: Appropriate amounts of samples were weighed and let stand at 60° C./75% RH open to the atmosphere for 7 days, 14 days, and 1 month. Samples of different standing times were evaluated for the physical stability of the crystalline forms by XRPD.

[2] = Hygroscopicity by DVS testing; settings: for Desorption curve (cycle 1, desorption): DVS 25° C., from 30% RH to 95% RH
Protocol: The dynamic vapor sorption (DVS) analysis may be conducted on the DVS Intrinsic system from Surface Measurement Systems (SMS). Temperature: 25° C.: sample amount: 20-40 mg; protective gas and flow rate: N2, 200 mL/min; dm/dt: 0.002%/min; minimum dm/dt equilibration time: 10 min, maximum equilibration time. 180 min; RH range: room humidity to 95% RH to 0% RH to 95% RH: 0% RH to 95% RH to 0% RH; RH gradient: 10% RH (0% RH to 90% RH & 90% RH to 0% RH): 5% RH (90% RH to 95% RH & 95% RH to 90% RH).

[3] = Solid stability, 60° C. sealed 24 hours and 40° C./75% RH open one week (XRPD, HPLC, KF); settings: for Purity (%): HPLC; for Water content (%): KF test; for Polymorphic transition or not: XRPD; for HPLC purity change / Polymorphic transition: 60° C. sealed 24 hours and 40° C./75% RH open one week; for Relative to the initial (%): purity
Excerpt: Proton nuclear magnetic resonance may be conducted on the Bruker 400M nuclear magnetic resonance spectrometer, with deuterated chloroform, deuterated methanol, or dimethyl sulfoxide-d6 as the solvent. Water titration (KF test) may be conducted on the Metrohm 870 KF Titrinoplus from Sigma-Aldrich, with ultrapure water for calibration and Hydranal® R-Composite 5 as the titration reagent. HPLC-grade methanol was used to dissolve the solid sample.
High-performance liquid chromatography (HPLC) may be conducted on the Agilent 1260 high-performance liquid chromatograph system (Waters Xbridge C18, 150×4.6 mm, 5 μm column).
In order to further evaluate the solid stability of the crystalline forms of the present invention, appropriate amounts of samples were for at 60° C. in a sealed condition for 24 hours and at 40° C./75% RH open to the atmosphere for a week.

[4] = Humidity induction test: standing at various humidities at room temperature; settings: for Polymorphic transition or not: room temperature, open
Excerpt: Some of the crystalline forms prepared in the above examples were investigated in a humidity induction test at room temperature.

[5] = Variable-temperature XRPD / heating test of crystalline forms
Protocol: The X-ray powder diffraction (XRPD) analysis may be conducted on the X'Pert3 X-ray powder diffraction analyzer with the following parameters: Cu, kα; Kα1 (Å): 1.540598: Kα2 (Å): 1.544426; Kα2/Kα1 intensity ratio: 0.50; voltage: 45 kV; current: 40 mA; divergent slit: ⅛°; scan mode: continuous: scanning range: 3° to 40°: scanning step: 0.0263°; time of step: 46.665 s: scanning time: 5 min 03 s. Alternatively, the analysis may be conducted on the PANalytical Empyrean X-ray powder diffraction analyzer with the following parameters: Cu, kα; Kα1 (Å): 1.540598: Kα2 (Å); 1.544426: Kα2/Kα1 intensity ratio: 0.50: voltage: 45 kV; current; 40 mA: divergent slit: automatic; scan mode: continuous; scanning range: 3° to 40°; scanning step: 0.0167°; time of step: 17.780 s/33.020 s; scanning time: 5 min 32 s/10 min 13 s.

[6] = 22.5% RH (saturated potassium acetate), 10 days
[7] = 22.5% RH (saturated potassium acetate), 23 days
[8] = 22.5% RH (saturated potassium acetate), 30 days
[9] = 43.2% RH (saturated potassium carbonate), 10 days
[10] = 43.2% RH (saturated potassium carbonate), 23 days
[11] = 43.2% RH (saturated potassium carbonate), 30 days
[12] = 60% RH (stability chamber), 10 days
[13] = 60% RH (stability chamber), 23 days
[14] = 60% RH (stability chamber), 30 days
[15] = 84.2% RH (saturated potassium chloride), 10 days
[16] = 84.2% RH (saturated potassium chloride), 23 days
[17] = 84.2% RH (saturated potassium chloride), 30 days
[18] = 30 days open to the atmosphere at room temperature at 22.5% RH to 84.2% RH
[19] = 23 days open to the atmosphere at room temperature at 43.2% RH to 84.2% RH

C=CC(=O)N1CCN2c3c(c(=O)n(-c4c(C)ccnc4C(C)C)c4nc(-c5c(O)cccc5F)c(Cl)cc34)N(C)C(=O)[C@H]2C1 (single isomer, unassigned) [Amorphous form sample]
Crystalline form ([1]; 60° C./75% RH (open), 1 month): Polymorphic transition | Crystalline form ([1]; 60° C./75% RH (open), 7 days): Amorphous form | Polymorphic transition [1]: occurrence of polymorphic transition | Crystalline form ([1]; Initial, 0 days): Amorphous form | Desorption curve (cycle 1, desorption) [2]: a plateau was observed

C=CC(=O)N1CCN2c3c(c(=O)n(-c4c(C)ccnc4C(C)C)c4nc(-c5c(O)cccc5F)c(Cl)cc34)N(C)C(=O)[C@H]2C1 [Crystalline form 3, (4aR,8R)-3-acryloyl-11-chloro-10-(2-fluoro-6-hydroxyphenyl)-8-(2-isopropyl-4-methylpyridin-3-yl)-6-methyl-2,3,4,4a,6,8-hexahydro-1H-pyrazino[1′,2′:4,5]pyrazino[2,3-c][1,8]naphthyridine-5,7-dione]
Crystalline form ([1]; 60° C./75% RH (open), 1 month): Crystalline form 3 | Crystalline form ([1]; 60° C./75% RH (open), 7 days): Crystalline form 3 | Crystalline form ([1]; 60° C./75% RH (open), 14 days): Crystalline form 3 | Polymorphic transition [1]: no transition | Crystalline form ([1]; Initial, 0 days): Crystalline form 3 | Purity (%) ([3]; 40° C./75% RH/open, 1 week): 99.27% | Water content (%) ([3]; 40° C./75% RH/open, 1 week): 1.3% | Polymorphic transition or not ([3]; 40° C./75% RH/open, 1 week): No | HPLC purity change [3]: no significant decrease in HPLC purity | Polymorphic transition [3]: no polymorphic transition | Purity (%) ([3]; 60° C./sealed, 1 day): 99.27% | Water content (%) ([3]; 60° C./sealed, 1 day): 1.1% | Polymorphic transition or not ([3]; 60° C./sealed, 1 day): No | Purity (%) ([3]; Initial): 99.33% | Water content (%) ([3]; Initial): 0.9% | Relative to the initial (%) ([3]; 40° C./75% RH/open, 1 week): 99.94% | Relative to the initial (%) ([3]; 60° C./sealed, 1 day): 99.94% | Polymorphic transition or not [4, 6]: No | Polymorphic transition or not [4, 7]: No | Polymorphic transition or not [4, 8]: No | Polymorphic transition or not [4, 9]: No | Polymorphic transition or not [4, 10]: No | Polymorphic transition or not [4, 11]: No | Polymorphic transition or not [4, 12]: No | Polymorphic transition or not [4, 13]: No | Polymorphic transition or not [4, 14]: No | Polymorphic transition or not [4, 15]: No | Polymorphic transition or not [4, 16]: No | Polymorphic transition or not [4, 17]: No | Polymorphic transition [4, 18]: neither crystalline form 6 (Example 12) nor crystalline form 3 (Example 3) exhibited polymorphic transition | Crystalline form change on heating (variable-temperature XRPD) ([5]; heating to 150° C. and cooling to 30° C. in a N2 atmosphere): no crystalline form changes were observed | Weight gain (DVS) ([2]; 25° C./80% RH): less than 0.9% | Hygroscopicity (in words) ([2]; DVS at 25° C., 0% RH to 95% RH): almost no hygroscopicity | Crystalline form after DVS testing (XRPD) ([2]; after DVS testing): did not change

C=CC(=O)N1CCN2c3c(c(=O)n(-c4c(C)ccnc4C(C)C)c4nc(-c5c(O)cccc5F)c(Cl)cc34)N(C)C(=O)[C@H]2C1 [Crystalline form 4, (4aR,8R)-3-acryloyl-11-chloro-10-(2-fluoro-6-hydroxyphenyl)-8-(2-isopropyl-4-methylpyridin-3-yl)-6-methyl-2,3,4,4a,6,8-hexahydro-1H-pyrazino[1′,2′:4,5]pyrazino[2,3-c][1,8]naphthyridine-5,7-dione]
Crystalline form change on heating (variable-temperature XRPD) ([5]; heating to 80° C. or 130° C. in a N2 atmosphere): no significant crystalline form changes were observed

C=CC(=O)N1CCN2c3c(c(=O)n(-c4c(C)ccnc4C(C)C)c4nc(-c5c(O)cccc5F)c(Cl)cc34)N(C)C(=O)[C@H]2C1 [Crystalline form 6, (4aR,8R)-3-acryloyl-11-chloro-10-(2-fluoro-6-hydroxyphenyl)-8-(2-isopropyl-4-methylpyridin-3-yl)-6-methyl-2,3,4,4a,6,8-hexahydro-1H-pyrazino[1′,2′:4,5]pyrazino[2,3-c][1,8]naphthyridine-5,7-dione]
Polymorphic transition [1]: mild transition | Crystalline form ([1]; Initial, 0 days): Crystalline form 6 | Purity (%) ([3]; 40° C./75% RH/open, 1 week): 99.56% | Water content (%) ([3]; 40° C./75% RH/open, 1 week): 8.7% | Polymorphic transition or not ([3]; 40° C./75% RH/open, 1 week): No | HPLC purity change [3]: no significant decrease in HPLC purity | Polymorphic transition [3]: no polymorphic transition | Purity (%) ([3]; 60° C./sealed, 1 day): 99.62% | Water content (%) ([3]; 60° C./sealed, 1 day): 6.2% | Polymorphic transition or not ([3]; 60° C./sealed, 1 day): No | Purity (%) ([3]; Initial): 99.61% | Water content (%) ([3]; Initial): 9.0% | Relative to the initial (%) ([3]; 40° C./75% RH/open, 1 week): 99.95% | Relative to the initial (%) ([3]; 60° C./sealed, 1 day): 100.01% | Polymorphic transition or not [4, 6]: No | Polymorphic transition or not [4, 7]: No | Polymorphic transition or not [4, 8]: No | Polymorphic transition or not [4, 9]: No | Polymorphic transition or not [4, 10]: No | Polymorphic transition or not [4, 11]: No | Polymorphic transition or not [4, 12]: No | Polymorphic transition or not [4, 13]: No | Polymorphic transition or not [4, 14]: No | Polymorphic transition or not [4, 15]: No | Polymorphic transition or not [4, 16]: No | Polymorphic transition or not [4, 17]: No | Polymorphic transition [4, 18]: neither crystalline form 6 (Example 12) nor crystalline form 3 (Example 3) exhibited polymorphic transition | Desorption curve (cycle 1, desorption) [2]: a plateau can be observed | Crystallinity after DVS testing ([2]; after DVS testing): only slightly reduced

C=CC(=O)N1CCN2c3c(c(=O)n(-c4c(C)ccnc4C(C)C)c4nc(-c5c(O)cccc5F)c(Cl)cc34)N(C)C(=O)[C@H]2C1 [Crystalline form 8, (4aR,8R)-3-acryloyl-11-chloro-10-(2-fluoro-6-hydroxyphenyl)-8-(2-isopropyl-4-methylpyridin-3-yl)-6-methyl-2,3,4,4a,6,8-hexahydro-1H-pyrazino[1′,2′:4,5]pyrazino[2,3-c][1,8]naphthyridine-5,7-dione]
Polymorphic transition or not [4, 9]: No | Polymorphic transition or not [4, 10]: No | Polymorphic transition or not [4, 12]: No | Polymorphic transition or not [4, 13]: No | Polymorphic transition or not [4, 15]: No | Polymorphic transition or not [4, 16]: No | Polymorphic transition [4, 19]: neither crystalline form 8 (Example 40) nor crystalline form 9 (Example 42) exhibited polymorphic transition

C=CC(=O)N1CCN2c3c(c(=O)n(-c4c(C)ccnc4C(C)C)c4nc(-c5c(O)cccc5F)c(Cl)cc34)N(C)C(=O)[C@H]2C1 [Crystalline form 9, (4aR,8R)-3-acryloyl-11-chloro-10-(2-fluoro-6-hydroxyphenyl)-8-(2-isopropyl-4-methylpyridin-3-yl)-6-methyl-2,3,4,4a,6,8-hexahydro-1H-pyrazino[1′,2′:4,5]pyrazino[2,3-c][1,8]naphthyridine-5,7-dione]
Polymorphic transition or not [4, 9]: No | Polymorphic transition [4, 19]: neither crystalline form 8 (Example 40) nor crystalline form 9 (Example 42) exhibited polymorphic transition | XRPD pattern after heating test ([5]; heated to 100° C. and exposed to air): identical to that before heating

C=CC(=O)N1CCN2c3c(c(=O)n(-c4c(C)ccnc4C(C)C)c4nc(-c5c(O)cccc5F)c(Cl)cc34)N(C)C(=O)[C@H]2C1 [Crystalline form 11, (4aR,8R)-3-acryloyl-11-chloro-10-(2-fluoro-6-hydroxyphenyl)-8-(2-isopropyl-4-methylpyridin-3-yl)-6-methyl-2,3,4,4a,6,8-hexahydro-1H-pyrazino[1′,2′:4,5]pyrazino[2,3-c][1,8]naphthyridine-5,7-dione]
Crystalline form change on heating (variable-temperature XRPD) ([5]; holding at 30° C. for 20 minutes and heating to 100 C in a N2 atmosphere): no significant crystalline form changes were observed
